Reference: patent publication US11186612B2, “Substance P analog having progenitor cell or stem cell recruiting activity and method for progenitor cell or stem cell recruiting using the same” (AJOU UNIVERSITY INDUSTRY-ACADEMIC COOPERATION FOUNDATION, priority 2019, dated 2021)
Where no end group is shown, it is not given here.

Tests used:
[1] = test system: human-derived MSCs (hMSCs); test: Stem cell migration evaluation ex vivo (24-well Transwell plate, PKH 26-labeled hMSCs); format: cell-based; conditions: 1 μg/mL in DMEM + 1% FBS in bottom well, FIG. 2; for stem cell migration compared with the control: hMSCs in upper chamber
Method: In the present invention, to compare the stem cell recruiting activities of SP and the SP1 of the present invention, stem cell migration was evaluated in an ex vivo environment.
First, human-derived MSCs (hMSCs) were labeled with a PKH 26 dye (Sigma, USA), and 5×10^4 cells were put into an upper chamber (8.0 μm pore size) of a 24-well Transwell plate (SPL, Korea). After the hMSCs were cultured in the upper chamber for 48 hours using a serum-free DMEM (Gibco, USA), a medium prepared under the following conditions in Table 2 was added into a bottom well, and then the medium was replaced with a fresh one every third day, followed by observing hMSCs in the bottom well using a fluorescence microscope.

[2] = test system: human-derived MSCs (hMSCs); test: In vivo migration of ICG-labeled hMSCs to injected Cx-HA hydrogel containing SP or SP1 (NIR fluorescence imaging); set-up: species or system nude mouse; conditions: for fluorescence (recruited hMSC) at injected site: NIR-labeled Cx-HA hydrogel with 1 μg/mL peptide injected in one side of nude mouse, hMSCs via caudal vein, control Cx-HA no fluorescence
Method: Each of the NIR-HA-TET and NIR-HA-TCO, which were prepared in Example 3-1, was dissolved in 2% physiological saline to have a volume of 20 mg/mL, thereby preparing an aqueous solution, and 1 μg/mL of SP having an amino acid sequence of SEQ ID NO: 1 or SP1 having an amino acid sequence of SEQ ID NO: 2 was added to each solution. After 1-hour stirring, a hyaluronic acid hydrogel solution containing a stem cell recruiting factor was obtained by mixing the mixed solution prepared by stirring each of the solutions using a dual syringe.
NIR-labeled Cx-HA was injected into one side of a nude mouse, and NIR-labeled Cx-HA containing a stem cell recruiting factor was injected into the other side thereof, as shown in Table 3.
To visually confirm the extent of stem cell recruiting of SP1 in the present invention, hMCSs were labeled with indocyanine green and injected into a mouse caudal vein.
First, an indocyanine green (ICG) solution was prepared by dissolving 2 mg of ICG in 200 μL of DMSO, and mixing the resulting solution with 800 μL of a culture medium (DMEM (low-glucose)+10% FBS+1% penicillin-streptomycin). 10 μL of a 10 mg/mL protamine solution, 600 μL of the ICG solution and 600 μL of MEM-α were mixed, and gently stirred for 5 minutes. Afterward, the medium was removed from the flask in which hMSCs were cultured, replaced with 10 mL of a serum-free DMEM (low-glucose) medium, and then incubated for 1 hour at 37° C. under a 5% CO2 condition by adding a protamine/ICG solution.
Subsequently, the medium was removed, and the cells were washed with 10 mL PBS and treated with trypsin, thereby obtaining hMSCs. The hMSCs were prepared to be 1×10^6 cells/100 μL, and […] was injected into the caudal veins of nude mice using a […] syringe (FIG. 3). NIR fluorescence imaging was performed at a predetermined time using FOBI (NeoScience, Suwon, Korea) at 730 nm under conditions of an exposure of 2000 ms and a gain of 5.
To confirm the extent of promotion of in vivo hMSC migration by SP1 in the present invention, the hMSC-injected nude mice prepared in Example 4 were subjected to NIR fluorescence imaging using FOBI (NeoScience, Suwon, Korea) at 730 nm under conditions of an exposure of 2000 ms and a gain of 5.

In the case of RISPQQRDALA (SP1), the “number of moved stem cells compared with the SP-treated group” value [1] is reported as “high”, the “stem cell migration compared with the control” value [1] is reported as “stem cells moved” and the “stem cell recruiting activity maintenance time” value ([2]; Cx-HA hydrogel 1 μg/mL peptide, nude mouse, FIG. 6, compared with conventional SP) is reported as “longer”. For the same sequence, the “stem cell recruiting activity, comparing FIGS. 4 (SP) and 5 (SP1)” value ([2]; Cx-HA hydrogel 1 μg/mL peptide, nude mouse, NIR imaging over time, compared with SP) was “higher stem cell recruiting activity”, the “amount of stem cells moved to the injected site, quantified (FIG. 6): stem cell recruiting activity” value ([2]; Cx-HA hydrogel 1 μg/mL peptide, nude mouse, compared with conventional SP) was “higher stem cell recruiting activity” and the “fluorescence (recruited hMSC) at injected site” value [2] was “fluorescence was observed”.

With “RPKPQQFFGLM (RPKPQQFFGLM-NH2) [SP, neuropeptide of 11 amino acids (Arg-Pro-Lys-Pro-Gln-Gln-Phe-Phe-Gly-Leu-Met-NH2), endogenous NKR1 ligand, reference compound]” the “stem cell migration compared with the control” value [1] was “stem cells moved” and the “fluorescence (recruited hMSC) at injected site” value [2] was “fluorescence was observed”.
